Results from US10899700B2, “Process for the separation of long chain amino acids and dibasic acids” (Vitaworks IP, LLC, priority 2017, dated 2021).

Assays:
[1] = Solubility of sodium salts in water, ethanol and aqueous ethanol (FIG. 8); assay type: physicochemical; settings: for solubility change of the sodium salt in aqueous ethanol (in words): aqueous ethanol versus water or ethanol; for solubility of the sodium salt in water and in ethanol (in words): both water and ethanol
Excerpt: FIG. 8. Solubility of 11-aminoundecanoic acid and dodecanedioic acid in aqueous ethanol solution of 2 M sodium hydroxide at different concentration of ethanol.
For example, FIG. 8 illustrates the solubility change of sodium salts of 11-aminoundecanoic acid and dodecanedioic acid in aqueous ethanol. […] This surprising finding renders the separation of these two salts possible.

[2] = Solubility of alkali salts in sodium hydroxide solution (FIG. 6, FIG. 7); assay type: physicochemical; settings: 2 M sodium hydroxide, about 50° C.
Procedure: FIG. 6. Solubility curve of 11-aminoundecanoic acid in water at neutral pH, 1 M solution of sulfuric acid, and 2 M solution of sodium hydroxide.
FIG. 7. Solubility curve of heptanoic acid in a 6 M solution of sodium hydroxide and dodecanedioic acid in a 3 M solution of sodium hydroxide.
When the hydrolysis reaction of mixed amide derivatives from the Beckmann rearrangement is performed in the presence of alkali hydroxide, main products other than alkylamine are obtained in the form of their alkali salts. It was observed that a starting suspension of the mixed amide derivatives in a solution of alkali hydroxide is changed to a clear solution at a temperature of 60° C. or above after the hydrolysis.
Since long chain amino acid, e.g., 11-aminoundecanoic acid, has relatively constant solubility, evaporative concentration of the mother liquor will result in the crystallization of inorganic salt, in particular, sodium sulfate, along with valuable long chain amino acid. […] This finding greatly facilitates the separation of inorganic salt, most preferably, sodium sulfate, and the recovery of long chain amino acids.
In an alkali hydroxide hydrolysis of the mixed amide derivatives, two mole equivalents of alkali hydroxide are required, but more than two equivalents, usually between 2.5 to 3 equivalents of alkali hydroxide are used to achieve a complete hydrolysis. […]

physchem = settings: aqueous buffer
[3] = Phase separation of hexylamine-water azeotrope distillate upon cooling; assay type: physicochemical; settings: aqueous phase after cooling and phase separation
Excerpt: For the production of 11-aminoundecanoic acid and dodecanedioic acid, hexylamine is one of the main products. Hexylamine is found to form an azeotrope with water and can be separated from the solution by azeotropic distillation. Upon cooling, the distillate separates into an upper phase of nearly pure hexylamine and an aqueous phase containing not more than 2% of hexylamine. Hexylamine can also be separated from the mixture by steam distillation or steam stripping. Complete separation is accomplished when the distillate at the overhead becomes nearly neutral at a pH of 7-8.

solubility change of the sodium salt in aqueous ethanol (in words) [1]	solubility of the sodium salt in water and in ethanol (in words) [1]	solubility of the alkali salt in 2 M solution of sodium hydroxide (in words) [2]	solubility (physchem)	hexylamine content of the aqueous phase of the cooled azeotropic distillate [3]	SMILES
drastically increases the solubility	nearly insoluble	freely soluble	–	–	NCCCCCCCCCCC(=O)O [11-aminoundecanoic acid]
–	–	–	> 600 mg/mL	–	O=C(O)CCCCCCCC(=O)O [azelaic acid]
remains unchanged	nearly insoluble	–	–	–	O=C(O)CCCCCCCCCCC(=O)O [dodecanedioic acid]
–	–	–	–	not more than 2%	CCCCCCN [hexylamine]
